Experimental data: PubChem BioAssay AID1259407 (Chemical Carcinogenesis Research Information System (CCRIS), 2018)
Activity calls are given as the source filed them. No rule for the calls is given here.

Tested on: CCRIS mutagenicity, Ames/micronucleus/aberration tests
Assay: CCRIS mutagenicity studies
[1] = Test System: AMES SALMONELLA TYPHIMURIUM, Strain/Indicator: TA98, Metabolic Activation: NONE, Method: STANDARD PLATE
[2] = Test System: AMES SALMONELLA TYPHIMURIUM, Strain/Indicator: TA98, Metabolic Activation: RAT, LIVER, S-9, AROCLOR 1254, Method: STANDARD PLATE
[3] = Test System: AMES SALMONELLA TYPHIMURIUM, Strain/Indicator: TA100, Metabolic Activation: NONE, Method: STANDARD PLATE
[4] = Test System: AMES SALMONELLA TYPHIMURIUM, Strain/Indicator: TA100, Metabolic Activation: RAT, LIVER, S-9, AROCLOR 1254, Method: STANDARD PLATE
[5] = Test System: AMES SALMONELLA TYPHIMURIUM, Strain/Indicator: TA1535, Metabolic Activation: NONE, Method: STANDARD PLATE
[6] = Test System: AMES SALMONELLA TYPHIMURIUM, Strain/Indicator: TA1535, Metabolic Activation: RAT, LIVER, S-9, AROCLOR 1254, Method: STANDARD PLATE
[7] = Test System: AMES SALMONELLA TYPHIMURIUM, Strain/Indicator: TA1537, Metabolic Activation: NONE, Method: STANDARD PLATE
[8] = Test System: AMES SALMONELLA TYPHIMURIUM, Strain/Indicator: TA1537, Metabolic Activation: RAT, LIVER, S-9, AROCLOR 1254, Method: STANDARD PLATE

Measured: mutagenic call

O=[N+]([O-])O
inactive: Test System: AMES SALMONELLA TYPHIMURIUM, Strain/Indicator: TA97, Metabolic Activation: NONE, Method: PREINCUBATION inactive; negative | Test System: AMES SALMONELLA TYPHIMURIUM, Strain/Indicator: TA97, Metabolic Activation: S-9, Method: PREINCUBATION inactive; negative | Test System: AMES SALMONELLA TYPHIMURIUM, Strain/Indicator: TA97A, Metabolic Activation: NONE, Method: PREINCUBATION inactive; negative | Test System: AMES SALMONELLA TYPHIMURIUM, Strain/Indicator: TA97A, Metabolic Activation: NONE, Method: STANDARD PLATE inactive; negative | Test System: AMES SALMONELLA TYPHIMURIUM, Strain/Indicator: TA97A, Metabolic Activation: RAT, LIVER, S-9, PHENOBARBITAL AND BETA-NAPHTHOFLAVONE, Method: PREINCUBATION inactive; negative | Test System: AMES SALMONELLA TYPHIMURIUM, Strain/Indicator: TA97A, Metabolic Activation: RAT, LIVER, S-9, PHENOBARBITAL AND BETA-NAPHTHOFLAVONE, Method: STANDARD PLATE inactive; negative | [1] inactive; negative | [2] inactive; negative | Test System: AMES SALMONELLA TYPHIMURIUM, Strain/Indicator: TA98, Metabolic Activation: RAT, LIVER, S-9, PHENOBARBITAL AND BETA-NAPHTHOFLAVONE, Method: PREINCUBATION inactive; negative | Test System: AMES SALMONELLA TYPHIMURIUM, Strain/Indicator: TA98, Metabolic Activation: RAT, LIVER, S-9, PHENOBARBITAL AND BETA-NAPHTHOFLAVONE, Method: STANDARD PLATE inactive; negative | [3] inactive; negative | [4] inactive; negative | Test System: AMES SALMONELLA TYPHIMURIUM, Strain/Indicator: TA100, Metabolic Activation: RAT, LIVER, S-9, PHENOBARBITAL AND BETA-NAPHTHOFLAVONE, Method: PREINCUBATION inactive; negative | Test System: AMES SALMONELLA TYPHIMURIUM, Strain/Indicator: TA100, Metabolic Activation: RAT, LIVER, S-9, PHENOBARBITAL AND BETA-NAPHTHOFLAVONE, Method: STANDARD PLATE inactive; negative | Test System: AMES SALMONELLA TYPHIMURIUM, Strain/Indicator: TA102, Metabolic Activation: NONE, Method: PREINCUBATION inactive; negative | Test System: AMES SALMONELLA TYPHIMURIUM, Strain/Indicator: TA102, Metabolic Activation: S-9, Method: PREINCUBATION inactive; negative | Test System: AMES SALMONELLA TYPHIMURIUM, Strain/Indicator: TA102C, Metabolic Activation: NONE, Method: PREINCUBATION inactive; negative | Test System: AMES SALMONELLA TYPHIMURIUM, Strain/Indicator: TA102C, Metabolic Activation: NONE, Method: STANDARD PLATE inactive; negative | Test System: AMES SALMONELLA TYPHIMURIUM, Strain/Indicator: TA102C, Metabolic Activation: RAT, LIVER, S-9, PHENOBARBITAL AND BETA-NAPHTHOFLAVONE, Method: PREINCUBATION inactive; negative | Test System: AMES SALMONELLA TYPHIMURIUM, Strain/Indicator: TA102C, Metabolic Activation: RAT, LIVER, S-9, PHENOBARBITAL AND BETA-NAPHTHOFLAVONE, Method: STANDARD PLATE inactive; negative | Test System: AMES SALMONELLA TYPHIMURIUM, Strain/Indicator: TA1535, Metabolic Activation: NONE, Method: PREINCUBATION inactive; negative | [5] inactive; negative | [6] inactive; negative | Test System: AMES SALMONELLA TYPHIMURIUM, Strain/Indicator: TA1535, Metabolic Activation: RAT, LIVER, S-9, PHENOBARBITAL AND BETA-NAPHTHOFLAVONE, Method: PREINCUBATION inactive; negative | Test System: AMES SALMONELLA TYPHIMURIUM, Strain/Indicator: TA1535, Metabolic Activation: RAT, LIVER, S-9, PHENOBARBITAL AND BETA-NAPHTHOFLAVONE, Method: STANDARD PLATE inactive; negative | Test System: AMES SALMONELLA TYPHIMURIUM, Strain/Indicator: TA1537, Metabolic Activation: NONE, Method: PREINCUBATION inactive; negative | [7] inactive; negative | [8] inactive; negative | Test System: AMES SALMONELLA TYPHIMURIUM, Strain/Indicator: TA1537, Metabolic Activation: RAT, LIVER, S-9, PHENOBARBITAL AND BETA-NAPHTHOFLAVONE, Method: PREINCUBATION inactive; negative | Test System: AMES SALMONELLA TYPHIMURIUM, Strain/Indicator: TA1537, Metabolic Activation: RAT, LIVER, S-9, PHENOBARBITAL AND BETA-NAPHTHOFLAVONE, Method: STANDARD PLATE inactive; negative | Test System: AMES SALMONELLA TYPHIMURIUM, Strain/Indicator: TA1538, Metabolic Activation: NONE, Method: PREINCUBATION inactive; negative | Test System: AMES SALMONELLA TYPHIMURIUM, Strain/Indicator: TA1538, Metabolic Activation: NONE, Method: STANDARD PLATE inactive; negative | Test System: AMES SALMONELLA TYPHIMURIUM, Strain/Indicator: TA1538, Metabolic Activation: RAT, LIVER, S-9, AROCLOR 1254, Method: STANDARD PLATE inactive; negative | Test System: AMES SALMONELLA TYPHIMURIUM, Strain/Indicator: TA1538, Metabolic Activation: RAT, LIVER, S-9, PHENOBARBITAL AND BETA-NAPHTHOFLAVONE, Method: PREINCUBATION inactive; negative | Test System: AMES SALMONELLA TYPHIMURIUM, Strain/Indicator: TA1538, Metabolic Activation: RAT, LIVER, S-9, PHENOBARBITAL AND BETA-NAPHTHOFLAVONE, Method: STANDARD PLATE inactive; negative | Test System: E. COLI, Strain/Indicator: WP2, Metabolic Activation: NONE, Method: STANDARD PLATE inactive; negative | Test System: E. COLI, Strain/Indicator: WP2, Metabolic Activation: RAT, LIVER, S-9, AROCLOR 1254, Method: STANDARD PLATE inactive; negative

CC(C)C[C@@H]1NC(=O)CNC1=O
inactive: [1] inactive; negative | [2] inactive; negative | [3] inactive; negative | [4] inactive; negative | [5] inactive; negative | [6] inactive; negative | [7] inactive; negative | [8] inactive; negative
